Source: patent US10526292B2 (Parion Sciences, Inc., priority 2012, dated 2020)

Key:
ExLac rats = assay: Tear volume in rat model of dry eye disease (lacrimal gland excision, ExLac Model); format: in vivo, Sprague Dawley rats; conditions: 5 μl test article solution per eye, tear volume by ZoneQuick thread over 6 h
Description: The effects of compounds on tear volume was assessed in a rat model of dry eye disease in which Sprague Dawley rats undergo surgical lacrimal gland excision (ExLac Model) to reduce normal tear volume. The lacrimal excision reduces normal tear volume by ˜50% (Table 2).
Both the ipsilateral and contralateral eyes were dosed with 5 μl of test article solution. Tear production was measured using the ZoneQuick cotton thread with impregnated phenol red dye. The folded end of the thread was held in the lateral-ventral conjunctival cul-de-sac for 10 seconds. The length of tear wicking onto the thread was determined by measuring the length of the thread that changes color from yellow to red. Use of a stereomicroscope was assist in the accurate measurement (recorded in millimeters) of the wicking/color change. Tear volume was assessed pre-dose, and 15, 30, 60, 120, and 360 minute post-dose. For reference, the effect of a saline vehicle is shown for ExLac rats and normal (no lacrimal excision surgery) rats.

[1] = In vitro drug metabolism: plasma stability, rat; format: in vitro ADME; conditions: 2.5 μM, 37° C., up to six hours
Description: (§1) The metabolic stability of 9 and 15 was assessed in plasma (rat, rabbit, dog and human) and hepatocytes (rat and dog). Compounds were added either directly to plasma or to hepatocyte suspensions at a final concentration of 2.5 or 10 μM, respectively, and incubated at 37° C. for up to six hours. Aliquots were removed at various time points and quenched. The amount of parent compound was quantified via UPLC-fluorescence analysis. The amount of parent compound remaining was calculated based on the total peak area at the time of sampling divided by the total peak area at initiation.

[2] = In vitro drug metabolism: plasma stability, rabbit; format: in vitro ADME; conditions: 2.5 μM, 37° C., up to six hours
Description: as §1

[3] = In vitro drug metabolism: plasma stability, dog; format: in vitro ADME; conditions: 2.5 μM, 37° C., up to six hours
Description: as §1

[4] = In vitro drug metabolism: plasma stability, human; format: in vitro ADME; conditions: 2.5 μM, 37° C., up to six hours
Description: as §1

[5] = In vitro drug metabolism: hepatocyte stability, rat; format: in vitro ADME; conditions: rat hepatocyte suspension, 10 μM, 37° C., up to six hours
Description: as §1

[6] = In vitro drug metabolism: hepatocyte stability, dog; format: in vitro ADME; conditions: dog hepatocyte suspension, 10 μM, 37° C., up to six hours
Description: as §1

[7] = In vitro drug metabolism: summary in words for plasma and hepatocytes among the species evaluated; format: in vitro ADME; conditions: plasma (rat, rabbit, dog, human) and hepatocytes (rat, dog)
Description: as §1

[8] = Confocal microscopy assay of amiloride congener transport; format: in vitro ADME; conditions: applied to apical (epithelial) surface of mouse corneas, one hour at 37 C
Description: Serial x-y images were obtained one hour post-drug addition by confocal microsopy.

rats = conditions: topical addition; cited from earlier work
rabbits = conditions: topical addition; cited from earlier work

Compound | 6 h Ocular Hydration (AUC0-6) (ExLac rats) | further results
N=C(N)NCCCC[C@@H](N)C(=O)NCCCN(CCCNC(=O)[C@@H](N)CCCCNC(=N)N)CCOc1ccc(CCCCNC(=N)NC(=O)c2nc(Cl)c(N)nc2N)cc1 [Compound 90, 3,5-diamino-N—(N-(4-(4-(2-((3-((R)-2-amino-6-guanidinohexanamido)propyl)(3-((S)-2-amino-6-guanidinohexanamido)propyl)amino)ethoxy)phenyl)butyl)carbamimidoyl)-6-chloropyrazine-2-carboxamide] | 49.0 | –
N=C(N)NCCCC[C@H](N)C(=O)NCCCN(CCCNC(=O)[C@@H](N)CCCCNC(=N)N)CCCc1ccc(NC(=O)[C@@H](N)Cc2ccc(CCCCNC(=N)NC(=O)c3nc(Cl)c(N)nc3N)cc2)cc1 [Compound 145, (2S,2′S)—N,N′-(3,3′-(3-(4-((S)-2-amino-3-(4-(4-(3-(3,5-diamino-6-chloropyrazine-2-carbonyl)guanidino)butyl)phenyl)propanamido)phenyl)propylazanediyl)bis(propane-3,1-diyl))bis(2-amino-6-guanidinohexanamide)] | 44.7 | –
N=C(NCCCC[C@H](N)C(=O)NCCCN(CCCNC(=O)[C@@H](N)CCCCNC(=N)NC(=O)c1ccccc1)CCOc1ccc(CCCCNC(=N)NC(=O)c2nc(Cl)c(N)nc2N)cc1)NC(=O)c1ccccc1 [Compound 75, N,N′-((7S,19S)-7,19-diamino-13-(2-(4-(4-(3-(3,5-diamino-6-chloropyrazine-2-carbonyl)guanidino)butyl)phenoxy)ethyl)-1,25-diimino-8,18-dioxo-2,9,13,17,24-pentaazapentacosane-1,25-diyl)dibenzamide] | 38.2 | –
COC(=O)NC(=N)NCCCC[C@@H](N)C(=O)NCCCN(CCCNC(=O)[C@H](N)CCCCNC(=N)N)CCOc1ccc(CCCCNC(=N)NC(=O)c2nc(Cl)c(N)nc2N)cc1 [Compound 46, 3,5-diamino-N—(N-(4-(4-((R)-11-amino-17-(3-((R)-2-amino-6-guanidinohexanamido)propyl)-5-imino-3,12-dioxo-2-oxa-4,6,13,17-tetraazanonadecan-19-yloxy)phenyl)butyl)carbamimidoyl)-6-chloropyrazine-2-carboxamide] | 39.9 | –
N=C(N)NCCCC[C@H](NC[C@H](O)[C@@H](O)[C@H](O)[C@H](O)CO)C(=O)NCCCN(CCCNC(=O)[C@H](CCCCNC(=N)N)NC[C@H](O)[C@@H](O)[C@H](O)[C@H](O)CO)CCOc1ccc(CCCCNC(=N)NC(=O)c2nc(Cl)c(N)nc2N)cc1 [Compound 42, (S,R,R,R,2S,2′S)—N,N′-(3,3′-(2-(4-(4-(3-(3,5-diamino-6-chloropyrazine-2-carbonyl)guanidino)butyl)phenoxy)ethylazanediyl)bis(propane-3,1-diyl))bis(6-guanidino-2-((2S,3R,4R,5R)-2,3,4,5,6-pentahydroxyhexylamino)hexanamide)] | 52.3 | –
N=C(N)NCCCC[C@@H](N)C(=O)NCCCN(CCCNC(=O)[C@H](N)CCCCNC(=N)N)CCOc1ccc(CCCCNC(=N)NC(=O)c2nc(Cl)c(N)nc2N)c2c1CCCC2 [Compound 133, (2R,2′R)—N,N′-(3,3′-(2-(4-(4-(3-(3,5-diamino-6-chloropyrazine-2-carbonyl)guanidino)butyl)-5,6,7,8-tetrahydronaphthalen-1-yloxy)ethylazanediyl)bis(propane-3,1-diyl))bis(2-amino-6-guanidinohexanamide)] | 45.7 | –
N=C(N)NCCCC[C@@H](N)C(=O)NCCCN(CCCNC(=O)[C@H](N)CCCCNC(=N)N)CCOc1ccc2cc(CCCCNC(=N)NC(=O)c3nc(Cl)c(N)nc3N)ccc2c1 [Compound 116, (2R,2′R)—N,N′-(3,3′-(2-(6-(4-(3-(3,5-diamino-6-chloropyrazine-2-carbonyl)guanidino)butyl)naphthalen-2-yloxy)ethylazanediyl)bis(propane-3,1-diyl))bis(2-amino-6-guanidinohexanamide)] | 40.9 | –
N=C(NCCCCc1ccc(OCCN(CCCNC(=O)[C@@H](N)CCCCNC(=O)[C@@H](N)CCCCN)CCCNC(=O)[C@@H](N)CCCCNC(=O)[C@@H](N)CCCCN)cc1)NC(=O)c1nc(Cl)c(N)nc1N [Compound 59, (S,2S,2′S)—N,N′-(3,3′-(2-(4-(4-(3-(3,5-diamino-6-chloropyrazine-2-carbonyl)guanidino)butyl)phenoxy)ethylazanediyl)bis(propane-3,1-diyl))bis(2-amino-6-((S)-2,6-diaminohexanamido)hexanamide)] | 39.7 | –
N=C(N)NCCCC[C@H](N)C(=O)NCCCN(CCCNC(=O)[C@@H](N)CCCCNC(=N)N)CCOc1ccc(CCCCNC(=N)NC(=O)c2nc(Cl)c(N)nc2N)cc1 [Compound 15, (2S,2′S)—N,N′-(3,3′-(2-(4-(4-(3-(3,5-diamino-6-chloropyrazine-2-carbonyl)guanidino)butyl)phenoxy)ethylazanediyl)bis(propane-3,1-diyl))bis(2-amino-6-guanidinohexanamide)] | 50.2 | Plasma Stability (amount of parent compound remaining) [1]: 10%; Plasma Stability (amount of parent compound remaining) [2]: 8.7%; Plasma Stability (amount of parent compound remaining) [3]: 18%; Plasma Stability (amount of parent compound remaining) [4]: 7.6%; Hepatocyte Stability (amount of parent compound remaining) [5]: 14%; Hepatocyte Stability (amount of parent compound remaining) [6]: 19%; Stability towards metabolic hydrolysis in plasma and hepatocytes [7]: rapidly metabolized
N=C(N)NC(=O)c1nc(Cl)c(N)nc1N [Amiloride, amiloride] | 30.4 | Penetration of the cornea (confocal x-z image, FIG. 16) [8]: can fully penetrate the cornea; Change of tear volume (rats): approximate doubling of tear volume; Time tear volume remained elevated post-administration (rats): > 60 min; Change of tear volume (rabbits): approximate doubling of tear volume; Time tear volume remained elevated post-administration (rabbits): > 60 min
N=C(NCCCCc1ccc(OCCN(CCCN)CCCN)cc1)NC(=O)c1nc(Cl)c(N)nc1N [Compound 45, 3,5-diamino-N—(N-(4-(4-(2-(bis(3-aminopropyl)amino)ethoxy)phenyl)butyl)carbamimidoyl)-6-chloropyrazine-2-carboxamide] | 42.3 | Hepatocyte Stability (amount of parent compound remaining) [5]: 83%; Hepatocyte Stability (amount of parent compound remaining) [6]: 75%
N=C(N)NCCCC[C@H](N)C(=O)NCCCN(CCCNC(=O)[C@@H](N)CCCCNC(=N)N)CCCN(CCCN(CCCNC(=O)[C@@H](N)CCCCNC(=N)N)CCCNC(=O)[C@@H](N)CCCCNC(=N)N)CCOc1ccc(CCCCNC(=N)NC(=O)c2nc(Cl)c(N)nc2N)cc1 [Compound 82, (2S,2′S,2″S,2′″S)—N,N′,N″,N′″-(3,3′,3″,3′″-(3,3′-(2-(4-(4-(3-(3,5-diamino-6-chloropyrazine-2-carbonyl)guanidino)butyl)phenoxy)ethylazanediyl)bis(propane-3,1-diyl))bis(azanetriyl)tetrakis(propane-3,1-diyl))tetrakis(2-amino-6-guanidinohexanamide)] | 49.8 | –
N=C(N)NCCCC[C@H](N)C(=O)NCCCN(CCCN)CCOc1ccc(CCCCNC(=N)NC(=O)c2nc(Cl)c(N)nc2N)cc1 [Compound 51, (S)-3,5-diamino-N—(N-(4-(4-(2-((3-(2-amino-6-guanidinohexanamido)propyl)(3-aminopropyl)amino)ethoxy)phenyl)butyl)carbamimidoyl)-6-chloropyrazine-2-carboxamide] | 38.0 | –
N=C(N)NCCCC[C@H](N)C(=O)NCCCC[C@H](N)C(=O)NCCCC[C@H](N)C(=O)NCCCN(CCCNC(=O)[C@@H](N)CCCCNC(=O)[C@@H](N)CCCCNC(=O)[C@@H](N)CCCCNC(=N)N)CCOc1ccc(CCCCNC(=N)NC(=O)c2nc(Cl)c(N)nc2N)cc1 [Compound 102, (S,S,2S,2′S)—N,N′-(3,3′-(2-(4-(4-(3-(3,5-diamino-6-chloropyrazine-2-carbonyl)guanidino)butyl)phenoxy)ethylazanediyl)bis(propane-3,1-diyl))bis(2-amino-6-((S)-2-amino-6-((S)-2-amino-6-guanidinohexanamido)hexanamido)hexanamide)] | 43.2 | –
